Consider one compound from patent US7595395B2, “Gabaergic agents to treat memory deficits” (priority 2005, dated 2009).

In assay [1] the test system is GABAA receptor subtypes (alpha 1 to alpha 6 with beta 3 and gamma 2). The assay is described as follows: Direct triggering of chloride currents in oocytes, all tested subtypes. It is filed as cell-based. The settings on record: concentrations up to 1 μM, no GABA.
The target of assay [2] is α1β3γ2 GABAA receptor (Rattus norvegicus, UniProt P18508+P62813). The assay is described as follows: Two-electrode voltage clamp in Xenopus oocytes, α1β3γ2.
α1β3γ2 GABAA receptor, sequence (P62813 28-455): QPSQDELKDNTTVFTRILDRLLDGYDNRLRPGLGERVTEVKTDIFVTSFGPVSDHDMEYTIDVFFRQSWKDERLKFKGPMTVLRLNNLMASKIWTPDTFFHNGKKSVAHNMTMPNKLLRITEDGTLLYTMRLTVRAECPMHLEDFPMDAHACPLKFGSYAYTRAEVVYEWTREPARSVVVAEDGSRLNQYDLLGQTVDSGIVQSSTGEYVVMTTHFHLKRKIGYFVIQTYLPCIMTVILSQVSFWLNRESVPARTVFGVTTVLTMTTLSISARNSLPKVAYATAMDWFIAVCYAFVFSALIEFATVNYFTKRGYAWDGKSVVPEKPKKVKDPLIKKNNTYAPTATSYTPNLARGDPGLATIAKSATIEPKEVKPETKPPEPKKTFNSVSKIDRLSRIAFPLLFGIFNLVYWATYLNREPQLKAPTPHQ
α1β3γ2 GABAA receptor, sequence (P63079 26-473 partner): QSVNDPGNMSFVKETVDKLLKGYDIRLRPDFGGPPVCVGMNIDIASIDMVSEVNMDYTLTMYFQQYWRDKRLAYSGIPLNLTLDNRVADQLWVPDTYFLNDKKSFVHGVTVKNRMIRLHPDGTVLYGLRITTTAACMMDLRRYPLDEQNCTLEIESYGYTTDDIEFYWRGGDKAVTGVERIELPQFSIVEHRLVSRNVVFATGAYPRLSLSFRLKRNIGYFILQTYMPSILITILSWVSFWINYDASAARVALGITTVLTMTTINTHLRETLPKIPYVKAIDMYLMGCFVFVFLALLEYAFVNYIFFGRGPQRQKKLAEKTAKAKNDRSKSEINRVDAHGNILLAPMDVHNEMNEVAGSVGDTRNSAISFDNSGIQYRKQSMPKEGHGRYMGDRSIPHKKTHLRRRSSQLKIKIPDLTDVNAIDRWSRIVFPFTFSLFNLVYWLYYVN
α1β3γ2 GABAA receptor, sequence (P18508 39-466): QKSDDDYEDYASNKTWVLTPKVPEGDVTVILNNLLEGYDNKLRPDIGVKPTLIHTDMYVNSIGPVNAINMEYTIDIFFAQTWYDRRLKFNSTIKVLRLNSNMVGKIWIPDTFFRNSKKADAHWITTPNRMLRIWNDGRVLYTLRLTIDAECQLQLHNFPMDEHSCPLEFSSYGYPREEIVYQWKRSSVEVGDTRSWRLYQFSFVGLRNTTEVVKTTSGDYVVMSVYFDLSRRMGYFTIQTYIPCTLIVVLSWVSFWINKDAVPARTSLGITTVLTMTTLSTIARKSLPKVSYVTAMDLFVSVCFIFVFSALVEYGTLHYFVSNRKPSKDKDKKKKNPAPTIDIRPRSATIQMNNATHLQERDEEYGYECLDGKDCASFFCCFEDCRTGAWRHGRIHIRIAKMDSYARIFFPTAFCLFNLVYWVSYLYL
Assay [3] concerns the target α2β3γ2 GABAA receptor (Rattus norvegicus, UniProt P18508+P23576). The assay is described as follows: Two-electrode voltage clamp in Xenopus oocytes, α2β3γ2.
For assay [4], the target named is α3β3γ2 GABAA receptor (Rattus norvegicus, UniProt P18508+P20236). As to the kind of experiment: Two-electrode voltage clamp in Xenopus oocytes, α3β3γ2.
α3β3γ2 GABAA receptor, sequence (P20236 29-493): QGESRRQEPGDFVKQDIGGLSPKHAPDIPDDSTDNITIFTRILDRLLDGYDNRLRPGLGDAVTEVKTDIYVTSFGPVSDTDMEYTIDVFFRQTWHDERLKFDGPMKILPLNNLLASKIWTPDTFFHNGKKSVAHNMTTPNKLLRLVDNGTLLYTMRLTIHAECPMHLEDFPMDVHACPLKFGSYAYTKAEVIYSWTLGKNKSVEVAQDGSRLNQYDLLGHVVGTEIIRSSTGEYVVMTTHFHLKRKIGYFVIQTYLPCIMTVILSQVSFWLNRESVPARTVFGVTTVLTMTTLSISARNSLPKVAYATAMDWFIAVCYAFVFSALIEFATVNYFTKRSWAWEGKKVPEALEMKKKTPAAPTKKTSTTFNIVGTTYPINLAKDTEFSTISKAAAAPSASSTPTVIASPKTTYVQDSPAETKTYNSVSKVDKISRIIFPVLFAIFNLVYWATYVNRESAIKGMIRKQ
α3β3γ2 GABAA receptor, sequence (P63079 26-473 partner): as the sequence (P63079 26-473 partner) above
α3β3γ2 GABAA receptor, sequence (P18508 39-466): as the sequence (P18508 39-466) above
Assay [5] addresses α4β3γ2 GABAA receptor (Rattus norvegicus, UniProt P18508+P28471). The assay is described as follows: Two-electrode voltage clamp in Xenopus oocytes, α4β3γ2.
In assay [6] the target is α5β3γ2 GABAA receptor (Rattus norvegicus, UniProt P18508+P19969). The assay is described as follows: Two-electrode voltage clamp in Xenopus oocytes, α5β3γ2.
α5β3γ2 GABAA receptor, sequence (P19969 26-464): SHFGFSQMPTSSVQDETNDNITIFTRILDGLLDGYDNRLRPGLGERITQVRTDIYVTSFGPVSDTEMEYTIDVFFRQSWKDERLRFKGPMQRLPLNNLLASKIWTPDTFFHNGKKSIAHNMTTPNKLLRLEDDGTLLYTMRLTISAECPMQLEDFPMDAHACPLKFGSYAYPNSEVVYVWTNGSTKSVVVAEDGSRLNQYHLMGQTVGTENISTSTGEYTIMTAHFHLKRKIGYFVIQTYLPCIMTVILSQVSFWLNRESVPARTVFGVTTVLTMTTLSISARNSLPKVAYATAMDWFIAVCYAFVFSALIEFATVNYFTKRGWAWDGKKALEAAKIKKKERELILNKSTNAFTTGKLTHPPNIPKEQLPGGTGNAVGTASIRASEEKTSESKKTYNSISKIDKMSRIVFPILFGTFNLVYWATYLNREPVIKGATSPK
α5β3γ2 GABAA receptor, sequence (P63079 26-473 partner): as the sequence (P63079 26-473 partner) above
α5β3γ2 GABAA receptor, sequence (P18508 39-466): as the sequence (P18508 39-466) above
For assay [7], the target named is α6β3γ2 GABAA receptor (Rattus norvegicus, UniProt P18508+P30191). The assay is described as follows: Two-electrode voltage clamp in Xenopus oocytes, α6β3γ2.
α6β3γ2 GABAA receptor, sequence (P30191 20-453): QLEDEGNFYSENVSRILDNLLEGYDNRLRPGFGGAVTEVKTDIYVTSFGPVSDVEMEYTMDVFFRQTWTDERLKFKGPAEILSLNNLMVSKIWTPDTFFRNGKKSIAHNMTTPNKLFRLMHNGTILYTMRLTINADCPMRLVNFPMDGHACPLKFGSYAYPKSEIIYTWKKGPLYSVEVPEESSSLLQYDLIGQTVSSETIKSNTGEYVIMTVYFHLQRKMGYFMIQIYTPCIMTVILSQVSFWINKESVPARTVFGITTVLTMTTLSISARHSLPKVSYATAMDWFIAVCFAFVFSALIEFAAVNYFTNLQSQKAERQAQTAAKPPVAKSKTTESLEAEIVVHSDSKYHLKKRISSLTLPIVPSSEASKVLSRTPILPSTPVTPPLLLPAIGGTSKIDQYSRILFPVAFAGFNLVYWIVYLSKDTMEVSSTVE
α6β3γ2 GABAA receptor, sequence (P63079 26-473 partner): as the sequence (P63079 26-473 partner) above
α6β3γ2 GABAA receptor, sequence (P18508 39-466): as the sequence (P18508 39-466) above

Molecules are shown by their SMILES.

α2β3γ2 GABAA receptor, sequence (P23576 29-451): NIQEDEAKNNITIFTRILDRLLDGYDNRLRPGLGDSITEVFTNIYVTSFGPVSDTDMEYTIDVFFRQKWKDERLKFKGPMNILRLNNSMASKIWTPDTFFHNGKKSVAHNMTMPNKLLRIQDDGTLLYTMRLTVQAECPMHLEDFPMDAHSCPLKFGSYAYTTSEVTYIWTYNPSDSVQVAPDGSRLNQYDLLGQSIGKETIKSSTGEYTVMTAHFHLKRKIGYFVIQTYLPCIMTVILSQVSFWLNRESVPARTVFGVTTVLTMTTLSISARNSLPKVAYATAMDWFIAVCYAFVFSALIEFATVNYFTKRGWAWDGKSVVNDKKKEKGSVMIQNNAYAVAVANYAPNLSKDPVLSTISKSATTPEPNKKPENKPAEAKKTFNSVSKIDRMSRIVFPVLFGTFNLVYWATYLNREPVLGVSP
α2β3γ2 GABAA receptor, sequence (P63079 26-473 partner): as the sequence (P63079 26-473 partner) above
α2β3γ2 GABAA receptor, sequence (P18508 39-466): as the sequence (P18508 39-466) above
α4β3γ2 GABAA receptor, sequence (P28471 36-552): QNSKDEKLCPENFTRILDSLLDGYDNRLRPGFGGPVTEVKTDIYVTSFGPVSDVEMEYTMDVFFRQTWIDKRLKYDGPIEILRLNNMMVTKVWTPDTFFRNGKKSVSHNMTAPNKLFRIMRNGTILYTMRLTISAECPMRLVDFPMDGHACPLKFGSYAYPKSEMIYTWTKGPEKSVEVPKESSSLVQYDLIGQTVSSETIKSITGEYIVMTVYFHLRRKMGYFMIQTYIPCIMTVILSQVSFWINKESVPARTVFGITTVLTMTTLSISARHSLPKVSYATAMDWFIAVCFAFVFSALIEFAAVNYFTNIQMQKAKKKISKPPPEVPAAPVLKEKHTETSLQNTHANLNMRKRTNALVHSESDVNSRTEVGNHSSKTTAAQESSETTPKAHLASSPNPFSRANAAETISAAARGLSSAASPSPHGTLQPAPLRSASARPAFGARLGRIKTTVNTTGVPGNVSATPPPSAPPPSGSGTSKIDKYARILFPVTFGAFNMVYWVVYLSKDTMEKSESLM
α4β3γ2 GABAA receptor, sequence (P63079 26-473 partner): as the sequence (P63079 26-473 partner) above
α4β3γ2 GABAA receptor, sequence (P18508 39-466): as the sequence (P18508 39-466) above

In the case of `C#Cc1ccc2c(c1)C(=O)N(C)Cc1c(C(=O)OC(C)(C)C)ncn1-2` [RY024], the “triggering of chloride currents (in words)” value in assay [1] is recorded as “did not trigger chloride currents”. Moreover, the “Estimated maximum modulation ± SD” value in assay [2] (GABA EC20, α1β3γ2, extrapolated by curve-fit) is given as −31.0±2.5%; in assay [3] (GABA EC20, α2β3γ2, extrapolated by curve-fit), −20.7±1.2%; in assay [4] (GABA EC20, α3β3γ2, extrapolated by curve-fit) it was −3.3±2.1%; in assay [5] (GABA EC20, α4β3γ2, extrapolated by curve-fit) it was “+43.0 ± 15.9%”; in assay [6] (GABA EC20, α5β3γ2, extrapolated by curve-fit) it was −40.4±0.8%; in assay [7] (GABA EC20, α6β3γ2, extrapolated by curve-fit), “+35.2 ± 1.5%”. In assay [2] (oocytes), the “efficacy / modulation of GABA elicited currents at α1 (in words)” value is “reduced GABA elicited currents in a concentration dependent manner”. In addition, the “efficacy / modulation of GABA elicited currents at α2 (in words)” value in assay [3] (oocytes) is on record as “reduced GABA elicited currents in a concentration dependent manner”. The “reduction of the stimulation by 30 nM Diazepam” value in assay [4] (1 μM compound, α3 containing receptors, GABA EC3) is reported as 96.3±4.7%. In addition, the “efficacy / modulation of GABA elicited currents at α3 (in words)” value in assay [4] (oocytes) is given as “no apparent modulation”. Also, the “efficacy / modulation of GABA elicited currents at α4 (in words)” value in assay [5] (oocytes) is “weakly stimulated”. Also, in assay [6] (oocytes), the “efficacy / modulation of GABA elicited currents at α5 (in words)” value is “reduced GABA elicited currents in a concentration dependent manner”. Besides, the “EC50 lower for α5 containing receptors than for α1 and α2” value in assay [6] (reduction of GABA elicited currents) is listed as about 10 fold. For the same compound, the “efficacy / modulation of GABA elicited currents at α6 (in words)” value in assay [7] (oocytes) is “weakly stimulated”.
